The source of these data is patent US20220402872A1, “PHOTOPOLYMERIZABLE ANTIBACTERIAL MONOMER” (UNIVERSITA' DEGLI STUDI DI TRIESTE, priority 2019, published 2022).

Assay type in all cases: cell-based
Assay [1] relates to S. mutans (ATCC 25175). As to the kind of experiment: Determination of the minimum inhibitory concentration (MIC). The conditions noted are these: Streptococcus mutans, ATCC25175; against S. Mutans. As for the experimental part: (§1) A colony of bacterium taken from agar plate is inoculated in Brain Hearth Infusion medium (BHI) and grown overnight at 37° C. The next day, the bacteria are diluted in fresh medium containing the phenol red indicator, up to a density of 10^6 bacteria/mL.
(§2) A stock solution of 2 mg/mL of compound is prepared in BHI medium containing phenol red.
(§3) In a 96-well plate, the compound stock solution is diluted serially (the concentration is halved at each step) to obtain the following final concentrations after addition of the bacteria suspension: 1 mg/mL; 0.5 mg/mL; 0.25 mg/mL; 0.125 mg/mL; 0.065 mg/mL; 0.032 mg/mL; 0.016 mg/mL; 0.008 mg/mL; 0.004 mg/mL; 0.002 mg/mL; 0.001 mg/mL. A compound-free medium is used as a growth control. A volume of bacterial suspension equal to 0.5*10^6 bacteria/mL is added to each well containing the compound and the control. The dish is incubated at 37° C. for 24 hours. Bacterial growth in each well is detected by the phenol red, which turns from red to yellow following acidification of the medium induced by bacterial metabolism. The lowest concentration of the compound causing no evident color change corresponds to the MIC.
(§4) In order to test the antibacterial properties of the compounds prepared in Examples 1-8, on colonies of S. mutans (ATCC 25175), a bacterium commonly found in the human oral cavity, a test was set up to determine the minimum inhibitory concentration (MIC) and the minimum bactericidal concentration (MBC) according to the “Determination of minimum inhibitory concentration (MIC)” methods and “Determination of minimum bactericidal concentration (MBC)” described above.

The subject of assay [2] is S. mutans (ATCC 25175). Description: Determination of the minimum bactericidal concentration (MBC). As to conditions: Streptococcus mutans, ATCC25175; against S. Mutans. As to the method: (§5) A 20 mg/mL compound stock solution in BHI medium is prepared. In a 96-well plate, the compound solution is diluted serially (the concentration is halved at each step) to obtain the following final concentrations after addition of the bacteria suspension: 10 mg/mL; 5 mg/mL; 2.5 mg/mL; 1.25 mg/mL; 0.625 mg/mL; 0.31 mg/mL; 0.15 mg/mL; 0.08 mg/mL; 0.04 mg/mL; 0.02 mg/mL. Wells containing a mixture of penicillin and streptomycin antibiotics are used as a positive control. Compound-free medium is used as a growth control. A volume of bacterial suspension equal to 0.5*10^6 bacteria/mL is added to each well containing the compound and the controls. The dish is incubated at 37° C. for 24 hours. The lowest compound concentration at which no turbidity of the culture medium is evident is defined as MIC. For the calculation of MBC, aliquots equal to 50 μL are taken from the wells showing evident no turbidity of the medium and are plated on BHI agar plates for 48 hours. […] Bacterial suspensions taken from the positive control (growth medium only) and the negative control (growth medium with Ampicilin 100 μg/mL) are also seeded.
as §4

The subject of assay [3] is S. Mitis (ATCC 49456). Description: Determination of the minimum inhibitory concentration (MIC). The conditions noted are these: Streptococcus mitis, ATCC49456. As for the experimental part:
as §1, §2, §3
(§6) The compounds according to Examples 1, 3, 5, 6, and 7 were tested on bacterial strains different from S. mutans with the same methods described above, obtaining the MIC and MBC values reported in Table 2.

Assay [4] relates to S. Aureus (ATCC 25923). The assay is described as above. The conditions noted are these: Staphylococcus aureus, ATCC25923. As to the method:
as §1, §2, §3, §6

Assay [5] deals with E. coli (ATCC25922). The description is as above. The conditions noted are these: Escherichia coli. As to the method:
as §1, §2, §3, §6

Assay [6] deals with S. Sanguis (ATCC 10556). Described as above. As to the method:
as §1, §2, §3, §6

In a further assay the test system is bacteria grown on agar. As to the kind of experiment: Determination of bacterial inhibition - agar diffusion test of primer formulations. The conditions noted are these: for zone of inhibition at 1 % strength: 1% by weight of compound; for zone of inhibition at 5 % strength: 5% by weight of compound; for zone of inhibition at 10 % strength: 10% by weight of compound. The text has this: A test adapted from a commonly used method for determining the sensitivity of a bacterial strain to antibiotics in solution, known as Kirby-Bauer antibiotic testing or disc diffusion antibiotic sensitivity testing was used (Brown D F, Kothari D (1975), “Comparison of antibiotic discs from different sources”, J. Clin. Pathol. 28 (10): 779-83. Doi: 10.1136 /jcp.28.10.779). The test performed involves the use of discs imbued with a known concentration of the substance under examination that are placed on a layer of bacteria grown on agar. The diffusion of the bactericidal molecule from the disk into the agar causes the inhibition of bacterial growth in the area surrounding the disk itself where the molecule has spread with the formation of what are called zones of growth inhibition. The diameter of these inhibition zones (transparent circular regions in comparison to the bacterial film) is proportional to the antibacterial efficacy of the molecule to its concentration and to its diffusion ability in the medium.
The bactericidal properties of the compounds according to Examples 1, 3, 5, 6 and 7 were tested in various primer-type preparations, using the method “Bacterial inhibition determination-Agar diffusion test” described above. The disk soaked in the tested primer formulation without addition of compounds according to Examples 1, 3, 5, 6 and 7 was used as a negative reference.
For the tests, the following primer-type formulations were used, identified by the following codes: […]

In assay [7] the test system is S. Mitis (ATCC 49456). As to the kind of experiment: Determination of the minimum bactericidal concentration (MBC). As to the method:
as §5, §6

For assay [8], the system named is S. Aureus (ATCC 25923). The description is as above. As to the method: as §5, §6
Assay [9] relates to E. coli (ATCC25922). The assay is described as above. As for the experimental part:
as §5, §6

Assay [10] concerns S. Sanguis (ATCC 10556). The assay is described as above. As for the experimental part: as §5, §6

With `C=C(C)C(=O)OCC[N+](C)(C)CCCCCCCCCCCC[N+](C)(C)CCOC(=O)C(=C)C` [Example 2], inhibition of growth against S. mutans (ATCC 25175) [1] (MIC) required 156 µg/mL. Further, the MBC against S. mutans (ATCC 25175) [2] came out at 313 µg/mL.

`C=C(C)C(=O)OCC[N+](C)(C)Cc1ccc(C[N+](C)(C)CCOC(=O)C(=C)C)cc1.[Br-].[Br-]` [Example 8] had an MIC with S. mutans (ATCC 25175) [1] of 2500 µg/mL. Besides, the MBC with S. mutans (ATCC 25175) [2] amounted to 2500 µg/mL.

In the case of `C=C(C)C(=O)NCCC[N+](C)(C)CCCCCCCCCCCC[N+](C)(C)CCCNC(=O)C(=C)C.[F-].[F-]` [Example 4], in the assay with S. mutans (ATCC 25175) [1], the MIC is 156 µg/mL. In addition, the MBC in the assay with S. mutans (ATCC 25175) [2] was found to be 156 µg/mL.

Turning to `C=C(C)C(=O)NCCC[N+](C)(C)CCCCCCCCCCCC[N+](C)(C)CCCNC(=O)C(=C)C.[Br-].[Br-]` [Example 3], the MIC against S. Mitis (ATCC 49456) [3] was determined as 620 µg/mL; with S. Aureus (ATCC 25923) [4] it was 625 µg/mL; against E. coli (ATCC25922) [5], 1250 µg/mL; against S. Sanguis (ATCC 10556) [6], 620 µg/mL; in the assay with S. mutans (ATCC 25175) [1] it was 150 µg/mL. Besides, the MBC against S. mutans (ATCC 25175) [2] is 310 µg/mL. In addition, the zone of inhibition at 1 % strength with bacteria grown on agar (primer L1A) was determined as 8 mm; in the assay with bacteria grown on agar (primer L1B), 0 mm; in the assay with bacteria grown on agar (primer L2A), 6 mm; in the assay on bacteria grown on agar (primer L2B), 6 mm; in the assay with bacteria grown on agar (primer R5A) it was 6 mm; in the assay with bacteria grown on agar (primer R5B), 0 mm. Moreover, the zone of inhibition at 5 % strength came to 11 mm with bacteria grown on agar (primer L1A); 7 mm in the assay on bacteria grown on agar (primer L1B); 7 mm with bacteria grown on agar (primer L2A); 7 mm in the assay on bacteria grown on agar (primer L2B); 6 mm in the assay with bacteria grown on agar (primer R5A); 0 mm with bacteria grown on agar (primer R5B). For the same compound, the zone of inhibition at 10 % strength in the assay with bacteria grown on agar (primer L1A) came out at 13 mm; with bacteria grown on agar (primer L1B) it was 10 mm; with bacteria grown on agar (primer L2A), 10 mm; in the assay with bacteria grown on agar (primer L2B), 10 mm; in the assay with bacteria grown on agar (primer R5A) it was 8 mm; in the assay with bacteria grown on agar (primer R5B) it was 8 mm. The MCB with S. Mitis (ATCC 49456) [7] was determined as 0.62 mg/mL; with S. Aureus (ATCC 25923) [8] it was 1.25 mg/mL; with E. coli (ATCC25922) [9], 1.25 mg/mL; with S. Sanguis (ATCC 10556) [10], 0.62 mg/mL.
